The subject of one test is WAT derived ADMSCs. Put plainly: Neutral lipid staining of ADMSCs differentiated on adhesion peptide coated TCPS. Type of test: cell-based, mouse. The note with it: neutral lipid staining after differentiation on peptide coated TCPS. The procedure:
Fat depots from L2G85 (FVB/NJ) or C57BL6/J mice, perigonadal (visceral) or inguinal (subcutaneous) respectively, were isolated post mortem from 3 month old mice. These fat depots were washed with sterile phosphate buffered saline (PBS) for 10 minutes. The tissues were then minced with scissors into fragments smaller than 1 mm and digested in 0.1% type II collagenase (Gibco) in DMEM with 5% bovine serum albumin (BSA) (Fisher) for 1 hr at room temperature (RT) on an orbital shaker. The digest was then filtered through sterile gauze and centrifuged at 400×RCF for 10 minutes. The cell pellet was then suspended in an erythrocyte lysis buffer 155 mM NH4Cl, 5.7 mM K2HPO4, 0.1 mM EDTA in ultrapure water for 10 m minutes. The resulting suspension was then centrifuged at 400×RCF for 10 minutes to pellet the ADMSCs. The resulting ADMSC pellet was suspended in DMEM with 10% fetal bovine serum (FBS) and 1% P/S and plated on TCPS. […]
FIGS. 1A-F: Effects of adhesion ligands ADMSC differentiation. […] C) Quantitative rtPCR analysis of UCP1 expression of WAT derived murine ADMSCs that were differentiated on indicated adhesion substrate coated TCPS (see Tab. […] D) Quantitative rtPCR analysis of UCP1 expression of WAT derived ADMSCs differentiated on mixtures of Ag73 and C16 (n=6). […] F) Quantitative rtPCR analysis of UCP1 expression of WAT derived ADMSCs differentiated on mixtures of Ag73 and Ag32 (n=6).

Test [1] has as its system WAT derived murine ADMSCs. Nature of the test: UCP1 expression (quantitative rtPCR) of ADMSCs differentiated on adhesion peptide coated TCPS. The note with it: ADMSCs differentiated on single peptide coated TCPS; vs uncoated TCPS. Type of test: cell-based, mouse. The procedure:
Fat depots from L2G85 (FVB/NJ) or C57BL6/J mice, perigonadal (visceral) or inguinal (subcutaneous) respectively, were isolated post mortem from 3 month old mice. These fat depots were washed with sterile phosphate buffered saline (PBS) for 10 minutes. The tissues were then minced with scissors into fragments smaller than 1 mm and digested in 0.1% type II collagenase (Gibco) in DMEM with 5% bovine serum albumin (BSA) (Fisher) for 1 hr at room temperature (RT) on an orbital shaker. The digest was then filtered through sterile gauze and centrifuged at 400×RCF for 10 minutes. […]
Purified peptides were suspended at 20 μM in ultrapure water with 1% P/S. In 24 well TC plates (BD Falcon, 353047), 20 μM peptide suspensions were added to each well. […] The adherent and non adherent cells were then counted with the CyQuant kit (Invitrogen).
Tissue samples suspended in RNALater ICE (Ambion) and stored at −20° C. mRNA was isolated from RNALater ICE stabilized tissues or directly from in vitro cultures of monolayers or cell laden hydrogels with Trizol reagent (Ambion). […] Established delta delta CT method was employed to comparatively assess mRNA quantity. […]
FIGS. 1A-F: Effects of adhesion ligands ADMSC differentiation. […] C) Quantitative rtPCR analysis of UCP1 expression of WAT derived murine ADMSCs that were differentiated on indicated adhesion substrate coated TCPS (see Tab. […]

For “CGGKAFDITYVRLKF [C16, α5β1/3 integrin-engaging ligand, laminin γ1 chain peptide with N-terminal CGG]”, the lipid accumulation result with WAT derived ADMSCs is “significantly greater lipid accumulation”. In the case of “CGGRKRLQVQLSIRT [AG73, adhesion ligand for α6 integrins and syndecan-1, laminin a1 chain peptide with N-terminal CGG]”, the UCP1 expression entry in test [1] was “particularly efficient in driving UCP1 expression”.

The values above are taken from US10150948B2, “Compositions and methods for producing and administering brown adipocytes” (The Regents of the University of California, priority 2013, dated 2018).
